Results from the NIST ThermoML archive (doi:10.1016/j.tca.2016.04.013).

Experiments:
[1] = molar heat capacity at constant pressure; conditions: 101.33 kPa, Crystal, relaxation calorimetry
[2] = 101.33 kPa, Crystal, relaxation calorimetry

O=c1cc(Cl)[nH]c(=O)[nH]1 [6-chlorouracil]
Conditions	molar entropy, [2] [J/K/mol]	molar heat capacity at constant pressure, [1] [J/K/mol]
0.5 K	0.00109	0.00126
1 K	0.00269	0.00405
1.93 K	–	0.0182
2 K	0.00944	0.0203
2.15 K	–	0.0242
2.38 K	–	0.0322
2.65 K	–	0.043
2.95 K	–	0.0584
3 K	0.0242	0.0602
3.27 K	–	0.0782
3.63 K	–	0.103
4 K	0.0508	0.135
4.04 K	–	0.139
4.48 K	–	0.186
4.98 K	–	0.247
5 K	0.0926	0.252
5.52 K	–	0.332
6 K	0.152	0.415
6.12 K	–	0.436
6.79 K	–	0.58
7 K	0.232	0.631
7.53 K	–	0.771
8 K	0.333	0.908
8.35 K	–	1.02
9 K	0.459	1.25
9.26 K	–	1.35
10 K	0.612	1.66
10.25 K	–	1.77
11.34 K	–	2.31
12.58 K	–	3.02
13.97 K	–	3.91
15 K	1.8	4.63
15.49 K	–	4.99
17.19 K	–	6.32
19.09 K	–	7.91
20 K	3.67	8.68
21.19 K	–	9.7
23.51 K	–	11.78
25 K	6.08	13.17
26.09 K	–	14.1
28.91 K	–	16.74
30 K	8.88	17.67
32.12 K	–	19.59
35 K	11.94	22.04
35.65 K	–	22.58
39.54 K	–	25.93
40 K	15.15	26.22
43.88 K	–	29.29
45 K	18.47	30.18
48.68 K	–	32.81
50 K	21.85	33.87
54.02 K	–	36.6
59.94 K	–	40.61
60 K	28.63	40.68
66.52 K	–	44.81
70 K	35.37	46.77
73.83 K	–	48.95
80 K	41.97	52.2
81.96 K	–	53.22
90 K	48.41	57.15
90.91 K	–	57.53
100 K	54.67	61.75
100.89 K	–	61.78
110 K	60.76	66.1
111.04 K	–	66.68
120 K	66.7	70.26
121.13 K	–	70.82
130 K	72.48	74.29
131.15 K	–	74.92
140 K	78.13	78.22
141.29 K	–	78.76
150 K	83.66	82.08
151.38 K	–	82.6
160 K	89.08	85.89
161.47 K	–	86.43
170 K	94.4	89.66
171.56 K	–	90.19
180 K	99.63	93.41
181.61 K	–	94.08
190 K	104.78	97.14
191.69 K	–	97.83
200 K	109.85	100.85
201.81 K	–	101.23
210 K	114.86	104.56
211.89 K	–	105.16
220 K	119.81	108.26
222 K	–	108.99
230 K	124.71	111.96
232.08 K	–	112.88
240 K	129.55	115.64
242.1 K	–	116.48
250 K	134.35	119.33
252.19 K	–	120.07
260 K	139.1	123
262.33 K	–	123.73
270 K	143.81	126.67
272.41 K	–	127.71
273.15 K	145.28	127.82
280 K	148.48	130.33
282.41 K	–	131.41
290 K	153.12	133.98
292.56 K	–	134.98
298.15 K	156.87	136.94
300 K	157.72	137.62
302.57 K	–	138.3
